These compounds were tested on HCV genotype 1b replicon (assay: HCV replicon assay, genotype 1b). Conditions: Hepatitis C virus; genotype 1b replicon cells, 24 to 72 hours incubation, luciferase activity.
Format: cell-based, hepatitis C virus
Protocol: The HCV replicons and NS5A inhibitory activity of the present compounds may be tested using assays known in the art. HCV inhibitors, such as those described in the Examples herein have activities in genotype 1b, 2a and 1a replicon assays of from about 1 pM to about 1 μM. The assay is performed by incubating a replicon harboring cell-line in the presence of inhibitor for a set period of time and measuring the effect of the inhibitor on HCV replicon replication either directly by quantifying replicon RNA level, or indirectly by measuring enzymatic activity of a co-encoded reporter enzyme such as luciferase or β-lactamase. By performing a series of such measurements at different inhibitor concentrations, the effective inhibitory concentration of the inhibitor (EC50 or EC90) is determined. See Jan M. Vrolijk et al., A replicons-based bioassay for the measurement of interferons in patients with chronic hepatitis C, 110 J. VIROLOGICAL METHODS 201 (2003). Such assays may also be run in an automated format for high through-put screening. See Paul Zuck et al., A cell-based β-lactamase reporter gene assay for the identification of inhibitors of hepatitis C virus replication, 334 ANALYTICAL BIOCHEMISTRY 344 (2004).
Measurement of inhibition by compounds was performed using the HCV replicon system. Several different replicons encoding different HCV genotypes or mutations were used. In addition, potency measurements were made using different formats of the replicon assay, including different ways of measurements and different plating formats. See Jan M. Vrolijk et al., A replicons-based bioassay for the measurement of interferons in patients with chronic hepatitis C, 110 J. VIROLOGICAL METHODS 201 (2003); Steven S. Carroll et al., Inhibition of Hepatitis C Virus RNA Replication by 2′-Modified Nucleoside Analogs, 278(14) J. BIOLOGICAL CHEMISTRY 11979 (2003). However, the underlying principles are common to all of these determinations, and are outlined below.
Stable neomycin phosphotransferase encoding replicon-harboring cell lines were used, so all cell lines were maintained under G418 selection prior to the assay. In some cases, the cell lines encoded a luciferase:Neor fusion and could be assayed either directly by determination of RNA copy number, or indirectly through measurement of the luciferase activity.
To initiate an assay, replicon cells were plated in the presence of a dilution series of test compound in the absence of G418. Typically, the assays were performed in a 96-well plate format for manual operation, or a 384-well plate in an automated assay. Replicon cells and compound were incubated for 24 to 72 hours. At the end of the assay, cells are washed free of media and compound and then lysed. Luciferase activity was measured using a conventional luciferase assay. EC50 determinations were calculated as a percent of a DMSO control by fitting the data to a four parameter fit function.
The activity table below provides representative data illustrating observed activity against genotype 1b.

**Q.** For `O=C(Nc1ccc(-c2cc3nc(NC(=O)[C@@H]4CCCN4C(=O)Cc4ccccc4)ccc3[nH]2)cc1)[C@@H]1CCCN1C(=O)Cc1ccccc1` [Example 2, (2S)-1-(phenylacetyl)-N-{2-[4-({[(2S)-1-(phenylacetyl)pyrrolidin-2-yl]carbonyl}amino)phenyl]-1H-pyrrolo[3,2-b]pyridin-5-yl}pyrrolidine-2-carboxamide], which EC50 is on record?
**A.** The EC50 was 9 nM.

**Q.** How did the EC50 turn out when `O=C(Nc1ccc(-c2[nH]c3ncc(NC(=O)[C@@H]4CCCN4C(=O)Cc4ccccc4)cc3c2Cl)cc1)[C@@H]1CCCN1C(=O)Cc1ccccc1` [Example 6, (2S)—N-{3-chloro-2-[4-({[(2S)-1-(phenylacetyl)pyrrolidin-2-yl]carbonyl}amino)phenyl]-1H-pyrrolo[2,3-b]pyridin-5-yl}-1-(phenylacetyl)pyrrolidine-2-carboxamide] was run?
**A.** The EC50 was 200 nM.

**Q.** For `CC(C)(C)OC(=O)N[C@H](C(=O)N1CCC[C@H]1C(=O)Nc1ccc(-c2nc3cc(NC(=O)[C@@H]4CCCN4C(=O)[C@@H](NC(=O)OC(C)(C)C)c4ccccc4)ccc3[nH]2)cc1)c1ccccc1` [Example 14, tert-butyl {(1S)-2-[(2S)-2-({4-[5-({[(2S)-1-{(2S)-2-[(tert-butoxycarbonyl)amino]-2-phenylacetyl}pyrrolidin-2-yl]carbonyl}amino)-1H-benzimidazol-2-yl]phenyl}carbamoyl)pyrrolidin-1-yl]-2-oxo-1-phenylethyl}carbamate], which EC50 is on record?
**A.** The EC50 was 10 nM.

**Q.** With `CC(C)(C)OC(=O)N[C@@H](C(=O)N1CCC[C@H]1C(=O)Nc1ccc(-c2nc3cc(NC(=O)[C@@H]4CCCN4C(=O)[C@H](NC(=O)OC(C)(C)C)c4ccccc4)ccc3[nH]2)cc1)c1ccccc1` [Example 15, tert-butyl {(1R)-2-[(2S)-2-({4-[5-({[(2S)-1-{(2R)-2-[(tert-butoxycarbonyl)amino]-2-phenylacetyl}pyrrolidin-2-yl]carbonyl}amino)-1H-benzimidazol-2-yl]phenyl}carbamoyl)pyrrolidin-1-yl]-2-oxo-1-phenylethyl}carbamate] as the compound, how does the EC50 read?
**A.** Its EC50 is 0.045 nM.

**Q.** For `CC(=O)Nc1ccc(-c2cc3cc(NC(=O)[C@@H]4CCCN4C(=O)[C@H](NC(=O)OC(C)(C)C)c4ccccc4)ccc3o2)cc1` [Example 19, N-{2-[4-(acetylamino)phenyl]-1-benzofuran-5-yl}-1-{(2R)-2-[(tert-butoxycarbonyl)amino]-2-phenylacetyl}-L-prolinamide], which EC50 is on record?
**A.** Its EC50 is 25 nM.

**Q.** For `CCN(CC)[C@@H](C(=O)N1CCC[C@H]1C(=O)Nc1ccc(-c2cc3cc(NC(=O)[C@@H]4CCCN4C(=O)[C@@H](c4ccccc4)N(CC)CC)ccc3o2)cc1)c1ccccc1` [Example 26, (2S)-1-[(2R)-2-(diethylamino)-2-phenylacetyl]-N-(4-{5-[({(2S)-1-[(2R)-2-(diethylamino)-2-phenylacetyl]pyrrolidin-2-yl}carbonyl)amino]-1-benzofuran-2-yl}phenyl)pyrrolidine-2-carboxamide], which EC50 is on record?
**A.** Its EC50 is 0.063 nM.

**Q.** With `CCN(CC)[C@@H](C(=O)N1CCC[C@H]1C(=O)Nc1ccc2oc(-c3ccc(NC(C)=O)cc3)cc2c1)c1ccccc1` [Example 30] as the compound, how does the EC50 read?
**A.** Its EC50 is 26 nM.

**Q.** How did the EC50 turn out when `O=C(Nc1ccc2[nH]c(-c3cc4cc(NC(=O)[C@@H]5CCCN5C(=O)Cc5ccccc5)ccc4[nH]3)cc2c1)[C@@H]1CCCN1C(=O)Cc1ccccc1` [Example 39, (2S,2′S)—N,N′,1H,1′H-2,2′-biindole-5,5′-diylbis[1-(phenylacetyl)pyrrolidine-2-carboxamide]] was run?
**A.** The EC50 was 0.24 nM.

**Q.** How did the EC50 turn out when `CC(C)(C)OC(=O)N[C@@H](C(=O)N1CCCC1C(=O)Nc1ccc2[nH]c(-c3cc4cc(NC(=O)[C@@H]5CCCN5C(=O)[C@H](NC(=O)OC(C)(C)C)c5ccccc5)ccc4[nH]3)cc2c1)c1ccccc1` (stereo partly drawn) [Example 40] was run?
**A.** Its EC50 is 0.026 nM.

**Q.** With `CC(C)(C)OC(=O)N[C@@H](C(=O)N1CCC[C@H]1C(=O)Nc1ccc2[nH]c(-c3ccc(NC(=O)[C@@H]4CCCN4C(=O)Cc4ccccc4)cc3)cc2c1)c1ccccc1` [Example 41] as the compound, how does the EC50 read?
**A.** The EC50 was 0.05 nM.

**Q.** How did the EC50 turn out when `O=C(Nc1cnc(-c2cc3cc(NC(=O)[C@@H]4CCCN4C(=O)Cc4ccccc4)ccc3[nH]2)nc1)[C@@H]1CCCN1C(=O)Cc1ccccc1` [Example 42] was run?
**A.** The EC50 was 14 nM.

**Q.** Which EC50 does the source give for `O=C(Nc1ccc(-c2cc3cc(NC(=O)[C@@H]4CCCN4C(=O)[C@@H](c4ccccc4)N4CCCC4)ccc3[nH]2)cc1)[C@@H]1CCCN1C(=O)[C@@H](c1ccccc1)N1CCCC1` [Example 45, (2S)-1-[(2R)-2-phenyl-2-(pyrrolidin-1-yl)acetyl]-N-(4-{5-[({(2S)-1-[(2R)-2-phenyl-2-(pyrrolidin-1-yl)acetyl]pyrrolidin-2-yl}carbonyl)amino]-1H-indol-2-yl}phenyl) pyrrolidine-2-carboxamide] here?
**A.** Its EC50 is 0.02 nM.

**Q.** Which EC50 does the source give for `O=C(Nc1ccc(-c2cc3cc(NC(=O)[C@@H]4CCCN4C(=O)C(Cc4ccccc4)c4ccccc4)ccc3[nH]2)cc1)[C@@H]1CCCN1C(=O)C(Cc1ccccc1)c1ccccc1` (stereo partly drawn) [Example 49] here?
**A.** The EC50 was 0.072 nM.

**Q.** `CC(=O)Nc1ccc(-c2cc3cc(NC(=O)[C@@H]4CCCN4C(=O)[C@@H](c4ccccc4)N4CCCC4)ccc3[nH]2)cc1` [Example 58, N-{2-[4-(acetylamino)phenyl]-1H-indol-5-yl}-1[(2R)-2-phenyl-2-(pyrrolidin-1-yl)acetyl]-L-prolinamide] was tested. Which EC50 did it give?
**A.** The EC50 was 0.97 nM.

**Q.** How did the EC50 turn out when `O=C(Nc1ccc(-c2cc3cc(NC(=O)[C@@H]4CCCN4C(=O)[C@@H](c4ccccc4)N4CCCCC4)ccc3[nH]2)cc1)[C@@H]1CCCN1C(=O)[C@@H](c1ccccc1)N1CCCCC1` [Example 60, (2S)-1-[(2R)-2phenyl-2-(piperidin-1-yl)acetyl]-N-(4-{5-[({(2S)-1-[(2R)-2-phenyl-2-(piperidin-1-yl)acetyl]pyrrolidin-2-yl}carbonyl)amino]-1H-indol-2-yl}phenyl)pyrrolidine-2-carboxamide] was run?
**A.** Its EC50 is 0.13 nM.

**Q.** Which EC50 does the source give for `CCN(CC)[C@@H](C(=O)N1CCC[C@H]1C(=O)Nc1ccc(-c2cc3cc(NC(=O)[C@@H]4CCCN4C(=O)[C@@H](c4ccccc4)N(CC)CC)ccc3[nH]2)cc1)c1ccccc1` [Example 62, (2S)-1-[(2R)-2-(diethylamino)-2-phenylacetyl]-N-(4-{5-[({(2S)-1-[(2R)-2-(diethylamino)-2-phenylacetyl]pyrrolidin-2-yl}carbonyl)amino]-1H-indol-2-yl}phenyl)pyrrolidine-2-carboxamide] here?
**A.** Its EC50 is 0.067 nM.

**Q.** Which EC50 does the source give for `CN(C)[C@@H](C(=O)N1CCC[C@H]1C(=O)Nc1ccc2c(c1)CCc1c-2[nH]c2ccc(NC(=O)[C@@H]3CCCN3C(=O)[C@@H](c3ccccc3)N(C)C)cc12)c1ccccc1` [Example 94, (2S,2′S)-N,N′-6,11-dihydro-5H-benzo[a]carbazole-3,8-diylbis{1-[(2R)-2-(dimethylamino)-2-phenylacetyl]pyrrolidine-2-carboxamide}] here?
**A.** The EC50 was 0.006 nM.

**Q.** `CN(C)[C@@H](C(=O)N1CCC[C@H]1C(=O)Nc1ccc2c(c1)CCCc1c-2[nH]c2ccc(NC(=O)[C@@H]3CCCN3C(=O)[C@@H](c3ccccc3)N(C)C)cc12)c1ccccc1` [Example 95, (2S,2′S)-N,N′-5,6,7,12-tetrahydrobenzo[6,7]cyclohepta[1,2-b]indole-3,9-diylbis{1-[(2R)-2-(dimethylamino)-2-phenylacetyl]pyrrolidine-2-carboxamide}] was tested. Which EC50 did it give?
**A.** The EC50 was 0.01 nM.

**Q.** `CC(C)(C)CC(=O)N[C@H](C(=O)N1CCC[C@H]1C(=O)Nc1ccc2c(c1)CCc1c-2[nH]c2ccccc12)c1ccccc1` [Example 96, N-(6,11-dihydro-5H-benzo[a]carbazol-3-yl)-1-{(2S)-2-[(3,3-dimethylbutanoyl)amino]-2-phenylacetyl}-L-prolinamide] was tested. Which EC50 did it give?
**A.** The EC50 was 0.015 nM.

**Q.** Which EC50 does the source give for `CC(C)(C)OC(=O)N[C@@H](C(=O)N1CCC[C@H]1C(=O)Nc1ccc2[nH]c(-c3ccc(-c4cnc([C@@H]5CCCN5C(=O)[C@H](NC(=O)OC(C)(C)C)c5ccccc5)[nH]4)cc3)cc2c1)c1ccccc1` [Example 99, tert-butyl {(1R)-2-[(2S)-2-(5-{4-[5-({[(2S)-1-{(2R)-2-[(tert-butoxycarbonyl)amino]-2-phenylacetyl}pyrrolidin-2-yl]carbonyl}amino)-1H-indol-2-yl]phenyl}-1H-imidazol-2-yl)pyrrolidin-1-yl]-2-oxo-1-phenylethyl}carbamate] here?
**A.** Its EC50 is 0.038 nM.

Same assay, conditions: genotype 1b replicon cells, 24 to 72 hours incubation, luciferase activity

**Q.** With `CN(C)[C@@H](C(=O)N1CCC[C@H]1C(=O)Nc1ccc2[nH]c(-c3ccc(NC(=O)[C@@H]4CCCN4C(=O)[C@H]4CCCO4)cc3)cc2c1)c1ccccc1` [Example 72] as the compound, how does the EC50 read?
**A.** Its EC50 is 0.17 nM.

— patent US11053243B2 (Merck Sharp & Dohme Corp., priority 2009, dated 2021)
